One may read the IC50 as the concentration needed to halve the response being measured. A low value points to higher potency.

Where only a bound is given, the exact number is not on record here.

The values that follow come from patent US20080139536A1, “Benzodiazepines for Treating or Preventing Rsv Infection” (Novartis Pharmaceuticals Corporation, priority 2004, published 2008).

In one data set the test system is Hep-2 cells. The data set is described as follows: Cell toxicity: crystal violet staining and microscopic examination of monolayers. The following applies: Hep-2 monolayers of the assay plates, crystal violet stain, indications of cell toxicity; compounds tested 50 μM-0.78 μM. The data set is classed as cell-based. As for the experimental part:
(§1) All 96 wells of a microtitre plate were seeded at a density of 4×10^3 Hep-2 cells/well in 100 μl/well of Growth Medium (GM) consisting of Dulbecco's MEM (DMEM) with Glutamax-1, Sodium Pyruvate, 1000 mg/l glucose and pyridoxine (Invitrogen, catalogue number 21885-025) and supplemented with 10% FBS. (See Plate 1).
(§2) Six compounds were tested on each assay plate as illustrated below. (See Plate 3). Compounds were tested in duplicate wells across a 7-point dilution series (from 50 μM-0.78 μM): in the presence of virus.
The wells were emptied, washed in tap water and the monolayers stained with 50 μl/well of 2% crystal violet in 20% methanol/water for at least 1 hour. The wells were then washed and air-dried and the monolayers examined under the microscope for indications of cell toxicity.

The subject of another data set is RSV (RSS strain). The data set is described as follows: RSV ELISA antigen reduction assay in Hep-2 cells. The data set is classed as cell-based, Respiratory Syncytial Virus. The following applies: RSV-infected Hep-2 cells, 3 day assay, ELISA OD 490 nm, 7-point dilution 50 μM-0.78 μM. Here is the method: This was quantified by optical density (OD) measurement.
This assay was set up using all 96 wells of flat-bottomed 96-well plates. The outer wells were not subjected to any greater amount of evaporation than the inner wells during the 3 day assay period. (i.e. No “edge effect” seen).
Plates were set up one day before addition of virus and compounds. The assay then ran for 3 days with ELISA development taking place on the 4th day.
as §1
A frozen vial of RSV (RSS strain provided by Virogen Ltd) stock solution was removed from the −80 freezer or liquid nitrogen store and diluted to a known Multiplicity of Infection (m.o.i) in Growth Medium.
The m.o.i. was calculated by prior titration of the virus stock (by the ELISA assay method) as the virus input required to achieve a window of at least 0.8 OD units between infected and uninfected control wells.
50 μl of diluted virus was added to infected, “virus+”, wells by multichannel pipette; 50 μl of Growth Medium was added to uninfected, cell control wells (CC) by multichannel pipette. (See Plate 2)
Plates were incubated at 37° C. for 1 hr to allow virus adsorption.
Compounds were made up at 4× strength in GM containing 2% DMSO (a final DMSO concentration in the assay of 0.5%).
as §2
Virus infected, untreated wells served as the virus control (VC); Uninfected, untreated wells serve as the cell control (CC). The difference in absorbance between CC and VC wells constitutes the assay window.
200 μl of GM containing 2% DMSO was added to all wells except the ‘50 μM’ or first column, to which 392 μl of GM was added. 8 μl of each test compound was cherry-picked from a thawed Arrow screening plate and transferred to the appropriate well in the ‘50 μM’ column. Since the compound stock was at 10 mM in 100% DMSO, this will maintain the DMSO level at 2% at the top compound concentration.
Using a multichannel pipette, 200 μl was transferred from the 50 μM column to the 25 μM column, then to the 12.5 μM column and so on across the dilution plate creating a serial doubling dilution. Compounds were mixed upon transfer and tips changed between transfers, ensuring also that no compound was transferred to the last column of compound-free wells (0 μM).
The dilution plate was turned lengthways and 50 μl of compound easily transferred by multichannel pipette from the dilution plate to the assay plate, column by column. There was therefore an excess of 100 μl remaining in the dilution plate.
Plates were incubated at 37° C., 5% CO2 for 3 days.
Media was tapped out from wells directly into Virkon (1% solution in water) and plates were washed by immersing in a plastic box containing PBS. 50 μl/well of 75%/25% vol/vol acetone/methanol fixative was added by multichannel pipette and left for 3 mins.
Some 200 μl of blocking solution (2% Marvel in PBS containing 0.05% Tween) was added per well by multichannel pipette. Plates were incubated at 37° C. in a shaking incubator for 60 mins.
RSV mouse monoclonal antibody NCL-RSV3 (Novocastra) was diluted 1/400 in PBS/2% Marvel/0.05% Tween and 50 μl was added per well. Plates were incubated at 37° C. in a shaking incubator for 90 mins.
DAKo rabbit anti-mouse HRP conjugate (DAKO catalogue number P0260) was diluted 1/1000 in PBS/2% Marvel/0.05% Tween and 50 μl was added per well. Plates were incubated at 37° C. in a shaking incubator for 60 mins.
Substrate (SigmaFast OPD) was prepared in advance by dissolving 1 urea tablet in 20 mL water. […]

Setting [1] is: human respiratory syncytial virus, 72 h.

For `N#Cc1ccc(C(=O)N[C@H]2N=C(c3ccccc3)c3ccccc3NC2=O)c(N2CCCC2)c1` [Example 14, (S)-4-Cyano-N-(2-oxo-5-phenyl-2,3-dihydro-1H-benzo[e][1,4]diazepin-3-yl)-2-pyrrolidin-1-yl-benzamide], the TD50 result in the data set on Hep-2 cells is listed as “Tr50”. The IC50 in the data set on RSV (RSS strain) (setting [1]) is < 5 µM.

For the compound `N#Cc1ccc(C(=O)N[C@H]2N=C(c3ccccc3)c3ccccc3NC2=O)c(N2CCCCC2)c1` [Example 15, (S)-4-Cyano-N-(2-oxo-5-phenyl-2,3-dihydro-1H-benzo[e][1,4]diazepin-3-yl)-piperidine-1-yl-benzamide], the TD50 result with Hep-2 cells is listed as “Tr25”. In the data set on RSV (RSS strain), the IC50 is > 10 µM.

On to `O=C(N[C@H]1N=C(c2ccccc2)c2ccccc2NC1=O)c1cccnc1N1CCOCC1` [Example 21, (S)-2-Morpholin-4-yl-N-(2-oxo-5-phenyl-2,3-dihydro-1H-benzo[e][1,4]diazepin-3-yl)-nicotinamide], for which, in the data set with Hep-2 cells, the TD50 result is recorded as “Tr25”. In the data set with RSV (RSS strain) (setting [1]), this compound returned an IC50 of 5 to 10 µM.

As to `O=C(N[C@H]1N=C(c2ccccc2)c2ccccc2NC1=O)c1ccc(F)cc1[N+]1([O-])CCS(=O)(=O)CC1` [Example 5], in the data set on Hep-2 cells, the TD50 entry is listed as “Tr25”. The half-inhibitory concentration (IC50) in the data set with RSV (RSS strain) is < 5 µM.

As to `O=C(N[C@H]1N=C(c2ccccc2)c2ccccc2NC1=O)c1cc(F)ccc1N1CCS(=O)(=O)CC1` [Example 7, (S)-2-(1,1-Dioxo-1λ6-thiomorpholin-4-yl)-5-fluoro-N-(2-oxo-5-phenyl-2,3-dihydro-1H-benzo[e][1,4]diazepin-3-yl)-benzamide], the TD50 entry with Hep-2 cells is listed as “Tr50”. Moreover, in the data set on RSV (RSS strain) (setting [1]), the IC50 is < 5 µM.
